Measurements taken from patent US20260070945A1, “MACROCYCLIC IMMUNOMODULATORS” (Bristol-Myers Squibb Company, priority 2022, published 2026).
pIC50: −log10 of the molar value. Where a SMILES comes first, the peptide text is derived from it. Bridges are numbered along the chain shown (N, C = ends). [ ]: non-standard residue; d: D form. The star is where a group is joined. ξ: configuration not given here. Phe(4-CONH2) = NC(=O)c1ccc(C[C@H](N)C(=O)O)cc1; Phe(4-COOH) = N[C@@H](Cc1ccc(C(=O)O)cc1)C(=O)O; Bip = N[C@@H](Cc1ccc(-c2ccccc2)cc1)C(=O)O; Phe(3-Me) = Cc1cccc(C[C@H](N)C(=O)O)c1; Val(3-OH) = CC(C)(O)[C@H](N)C(=O)O; 4Pal = N[C@@H](Cc1ccncc1)C(=O)O; Cha = N[C@@H](CC1CCCCC1)C(=O)O; Cit = NC(=O)NCCC[C@H](N)C(=O)O; Thr(3ξ) = CC(O)[C@H](N)C(=O)O; Carboxymethyl = O=C(O)C*; NMeA = CN[C@@H](C)C(=O)O; Orn = NCCC[C@H](N)C(=O)O; Aun = NCCCCCCCCCCC(=O)O; Dab = NCC[C@H](N)C(=O)O; Dap = NC[C@H](N)C(=O)O; AEEA = NCCOCCOCC(=O)O

Molecular target: T1, PD-1/PD-L1 interaction (PE-labeled human PD-L1-Ig binding to Jurkat cell line over-expressing human PD-1) (Homo sapiens, UniProt Q15116)
T1 construct: expressed in transfected cells; host or cells: Jurkat
Experiment: Jurkat-PD-1 Cell Binding High-Content Screening Assay (CBA)
Conditions: Jurkat-hPD-1 cells, PE-labeled PD-L1-Ig 20 nM final; read-out: Jurkat HPD1 PDL1 IC50
Method: Example 2: Jurkat-PD-1 Cell Binding High-Content Screening Assay (CBA)
Phycoerythrin (PE) was covalently linked to the Ig epitope tag of human PD-L1-Ig and fluorescently-labeled PD-L1-Ig was used for binding studies with a Jurkat cell line over-expressing human PD-1 (Jurkat-PD-1). Briefly, 8×10^3 Jurkat-hPD-1 cells were seeded into 384 well plates in 20 μl of DMEM supplemented with 10% fetal calf serum. 100 nl of compound was added to cells followed by incubation at 37° C. for 2 hours. Then, 5 μl of PE-labeled PD-L1-Ig (20 nM final), diluted in DMEM supplemented with 10% fetal calf serum. After 1 hour incubation, cells were fixed with […] in dPBS containing 10 μg/ml Hoechst 33342 and then washed 3× in 100 μl dPBS. Data was collected and processed using a Cell Insight NXT High Content Imager and associated software.

T1 sequence (Q15116 25-288): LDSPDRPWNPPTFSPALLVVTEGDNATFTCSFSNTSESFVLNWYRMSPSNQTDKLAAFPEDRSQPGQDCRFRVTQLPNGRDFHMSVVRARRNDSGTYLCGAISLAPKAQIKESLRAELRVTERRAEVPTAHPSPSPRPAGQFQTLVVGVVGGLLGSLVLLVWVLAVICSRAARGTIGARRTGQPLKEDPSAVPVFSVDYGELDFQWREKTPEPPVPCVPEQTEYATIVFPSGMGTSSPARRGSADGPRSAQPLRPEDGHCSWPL

SMILES | pIC50
Cc1cccc(C[C@@H]2NC(=O)[C@H](CC(=O)O)NC(=O)[C@H](Cc3ccc(C(=O)O)cc3)NC(=O)[C@H](Cc3ccncc3)NC(=O)CSC[C@@H](C(=O)N[C@@H](CCN)C(=O)NCCOCCOCC(=O)NCCCCCCCCCCC(=O)O)NC(=O)[C@H](CCCN)NC(=O)[C@H](C(C)C)NC(=O)[C@H](CC3CCCCC3)NC(=O)[C@H](CCN)NC(=O)[C@@H](CC(C)C)NC(=O)[C@H](C)N(C)C(=O)[C@H](CCCNC(N)=O)NC(=O)[C@H](Cc3ccc(-c4ccccc4)cc3)NC(=O)[C@H](Cc3ccc(C(=O)O)cc3)NC2=O)c1 [Example 1404] ({CH2CO}-[4Pal][Phe(4-COOH)]D[Phe(3-Me)][Phe(4-COOH)][Bip][Cit][NMeA][dL][Dab][Cha]V[Orn]C[Dab][AEEA][Aun]-OH; thioether N-14) | 7.58
CC(=O)NCCCC[C@@H]1NC(=O)[C@H](Cc2ccc(-c3ccccc3)cc2)NC(=O)[C@H](Cc2ccc(O)cc2)NC(=O)[C@H](Cc2cccc(C)c2)NC(=O)[C@H](CC(=O)O)NC(=O)[C@H](Cc2ccc(OCC(=O)O)cc2)NC(=O)[C@H](CCN)NC(=O)CSC[C@@H](C(=O)NCCOCCOCC(=O)NCCCCCCCCCCC(=O)O)NC(=O)[C@H](C(C)O)NC(=O)[C@H](C(C)C)NC(=O)[C@H](CC2CCCCC2)NC(=O)[C@H](CCN)NC(=O)[C@@H](CC(C)C)NC(=O)[C@H](C)N(C)C1=O (stereo partly drawn) [Example 2419] ({CH2CO}-[Dab]Y(Carboxymethyl)D[Phe(3-Me)]Y[Bip]K(Ac)[NMeA][dL][Dab][Cha]V[Thr(3ξ)]C[AEEA][Aun]-OH; thioether N-14) | 7.28
Cc1cccc(C[C@@H]2NC(=O)[C@H](CC(=O)O)NC(=O)[C@H](Cc3ccc(OCC(=O)O)cc3)NC(=O)[C@H](CCCNC(N)=O)NC(=O)CSC[C@@H](C(=O)N[C@@H](CCN)C(=O)NCCCCCCCCCCC(=O)O)NC(=O)[C@H](CO)NC(=O)[C@H](C(C)C)NC(=O)[C@H](CC3CCCCC3)NC(=O)[C@H](CCN)NC(=O)[C@@H](CC(C)C)NC(=O)[C@H](C)N(C)C(=O)[C@H](Cc3ccc(O)cc3)NC(=O)[C@H](Cc3ccc(-c4ccccc4)cc3)NC(=O)[C@H](Cc3ccc(OCC(=O)O)cc3)NC2=O)c1 [Example 1275] ({CH2CO}-[Cit]Y(Carboxymethyl)D[Phe(3-Me)]Y(Carboxymethyl)[Bip]Y[NMeA][dL][Dab][Cha]VSC[Dab][Aun]-OH; thioether N-14) | 6.65
CC(C)C[C@@H]1NC(=O)[C@H](Cc2c[nH]c3ccccc23)NC(=O)[C@H](CC(=O)O)NC(=O)[C@H](Cc2ccc(C(=O)O)cc2)NC(=O)[C@H](Cc2ccc(OCC(=O)O)cc2)NC(=O)CSC[C@@H](C(=O)N[C@@H](CCCN)C(=O)NCCOCCOCC(=O)NCCCCCCCCCCC(=O)O)NC(=O)[C@H](CCCCN)NC(=O)[C@H](C(C)C)NC(=O)[C@H](CC2CCCCC2)NC(=O)[C@H](CC(=O)O)NC(=O)[C@@H](CC(C)C)NC(=O)[C@H](C)N(C)C(=O)[C@H](C(C)C)NC(=O)[C@H](Cc2ccc(-c3ccccc3)cc2)NC1=O [Example 2136] ({CH2CO}-Y(Carboxymethyl)[Phe(4-COOH)]DWL[Bip]V[NMeA][dL]D[Cha]VKC[Orn][AEEA][Aun]-OH; thioether N-14) | 6.84
CC(C)C[C@@H]1NC(=O)[C@H](Cc2c[nH]c3ccccc23)NC(=O)[C@H](CC(=O)O)NC(=O)[C@H](Cc2ccc(OCC(=O)O)cc2)NC(=O)[C@H](Cc2ccccc2)NC(=O)CSC[C@@H](C(=O)N[C@@H](CCCN)C(=O)NCCCCCCCCCCC(=O)O)NC(=O)[C@@H](CCC(N)=O)NC(=O)[C@H](C(C)C)NC(=O)[C@H](CC(C)C)NC(=O)[C@H](CC(N)=O)NC(=O)[C@@H](CC(C)C)NC(=O)[C@H](C)N(C)C(=O)[C@H](C(C)C)NC(=O)[C@H](Cc2ccc(-c3ccccc3)cc2)NC1=O [Example 1347] ({CH2CO}-FY(Carboxymethyl)DWL[Bip]V[NMeA][dL]NLV[dQ]C[Orn][Aun]-OH; thioether N-14) | 6.52

The next lines start with the values.

pIC50 | SMILES
8.05 | CC(C)C[C@@H]1NC(=O)[C@H](Cc2c[nH]c3ccccc23)NC(=O)[C@H](CC(=O)O)NC(=O)[C@H](Cc2ccc(C(=O)O)cc2)NC(=O)[C@H](Cc2ccc(OCC(=O)O)cc2)NC(=O)CSC[C@@H](C(=O)NCC(=O)N[C@@H](CCN)C(=O)NCC(=O)NCCCCCCCCCCC(=O)O)NC(=O)[C@H](CO)NC(=O)[C@H](C(C)C)NC(=O)[C@H](CC2CCCCC2)NC(=O)[C@H](CCN)NC(=O)[C@@H](CC(C)C)NC(=O)[C@H](C)N(C)C(=O)[C@H](C(C)C)NC(=O)[C@H](Cc2ccc(-c3ccccc3)cc2)NC1=O [Example 1029] ({CH2CO}-Y(Carboxymethyl)[Phe(4-COOH)]DWL[Bip]V[NMeA][dL][Dab][Cha]VSCG[Dab]G[Aun]-OH; thioether N-14)
8.01 | CC(C)C[C@@H]1NC(=O)[C@H](Cc2c[nH]c3ccccc23)NC(=O)[C@H](CC(=O)O)NC(=O)[C@H](Cc2ccc(C(=O)O)cc2)NC(=O)[C@H](Cc2ccc(OCC(=O)O)cc2)NC(=O)CSC[C@@H](C(=O)N[C@@H](CCCCN)C(=O)NCCCCCCCCCCC(=O)O)NC(=O)[C@H](CCCNC(N)=O)NC(=O)[C@H](C(C)C)NC(=O)[C@H](CC2CCCCC2)NC(=O)[C@H](CCN)NC(=O)[C@@H](CC(C)C)NC(=O)[C@H](C)N(C)C(=O)[C@H](C(C)C)NC(=O)[C@H](Cc2ccc(-c3ccccc3)cc2)NC1=O [Example 1099] ({CH2CO}-Y(Carboxymethyl)[Phe(4-COOH)]DWL[Bip]V[NMeA][dL][Dab][Cha]V[Cit]CK[Aun]-OH; thioether N-14)
8.02 | CC(C)C[C@@H]1NC(=O)[C@H](Cc2c[nH]c3ccccc23)NC(=O)[C@H](CC(=O)O)NC(=O)[C@H](Cc2ccc(C(=O)O)cc2)NC(=O)[C@H](Cc2ccc(OCC(=O)O)cc2)NC(=O)CSC[C@@H](C(=O)N[C@@H](CCCN)C(=O)NCCOCCOCC(=O)NCCCCCCCCCCC(=O)O)NC(=O)[C@H](CO)NC(=O)[C@H](C(C)C)NC(=O)[C@H](CC2CCCCC2)NC(=O)[C@H](CCN)NC(=O)[C@@H](CC(C)C)NC(=O)[C@H](C)N(C)C(=O)[C@H](C(C)C)NC(=O)[C@H](Cc2ccc(-c3ccccc3)cc2)NC1=O [Example 2095] ({CH2CO}-Y(Carboxymethyl)[Phe(4-COOH)]DWL[Bip]V[NMeA][dL][Dab][Cha]VSC[Orn][AEEA][Aun]-OH; thioether N-14)
7.60 | Cc1cccc(C[C@@H]2NC(=O)[C@H](CC(=O)O)NC(=O)[C@H](Cc3ccc(OCC(=O)O)cc3)NC(=O)[C@H](C(C)O)NC(=O)CSC[C@@H](C(=O)N[C@@H](CCN)C(=O)NCCOCCOCC(=O)NCCCCCCCCCCC(=O)O)NC(=O)[C@H](CC(N)=O)NC(=O)[C@H](C(C)(C)O)NC(=O)[C@H](CC3CCCCC3)NC(=O)[C@H](CCN)NC(=O)[C@@H](CC(C)C)NC(=O)[C@H](C)N(C)C(=O)[C@H](Cc3ccc(OCC(=O)O)cc3)NC(=O)[C@H](Cc3ccc(-c4ccccc4)cc3)NC(=O)[C@H](Cc3ccc(C(=O)O)cc3)NC2=O)c1 (stereo partly drawn) [Example 2474] ({CH2CO}-[Thr(3ξ)]Y(Carboxymethyl)D[Phe(3-Me)][Phe(4-COOH)][Bip]Y(Carboxymethyl)[NMeA][dL][Dab][Cha][Val(3-OH)]NC[Dab][AEEA][Aun]-OH; thioether N-14)
7.69 | Cc1cccc(C[C@@H]2NC(=O)[C@H](CC(=O)O)NC(=O)[C@H](Cc3ccc(C(=O)O)cc3)NC(=O)[C@H](Cc3ccc(OCC(=O)O)cc3)NC(=O)CSC[C@@H](C(=O)N[C@@H](CCN)C(=O)NCCCCCCCCCCC(=O)O)NC(=O)[C@H](CCC(=O)O)NC(=O)[C@H](C(C)C)NC(=O)[C@H](CC3CCCCC3)NC(=O)[C@H](CCN)NC(=O)[C@@H](CC(C)C)NC(=O)[C@H](C)N(C)C(=O)[C@H](C(C)C)NC(=O)[C@H](Cc3ccc(-c4ccccc4)cc3)NC(=O)[C@H](CC(C)C)NC2=O)c1 [Example 2293] ({CH2CO}-Y(Carboxymethyl)[Phe(4-COOH)]D[Phe(3-Me)]L[Bip]V[NMeA][dL][Dab][Cha]VEC[Dab][Aun]-OH; thioether N-14)
7.96 | CC(C)C[C@@H]1NC(=O)[C@H](Cc2c[nH]c3ccccc23)NC(=O)[C@H](CC(=O)O)NC(=O)[C@H](Cc2ccc(OCC(=O)O)cc2)NC(=O)[C@H](Cc2ccc(OCC(=O)O)cc2)NC(=O)CSC[C@@H](C(=O)N[C@@H](CCCCN)C(=O)NCCOCCOCC(=O)NCCCCCCCCCCC(=O)O)NC(=O)[C@H](CN)NC(=O)[C@H](C(C)C)NC(=O)[C@H](CC2CCCCC2)NC(=O)[C@H](CCN)NC(=O)[C@@H](CC(C)C)NC(=O)[C@H](C)N(C)C(=O)[C@H](C(C)C)NC(=O)[C@H](Cc2ccc(-c3ccccc3)cc2)NC1=O [Example 2154] ({CH2CO}-Y(Carboxymethyl)Y(Carboxymethyl)DWL[Bip]V[NMeA][dL][Dab][Cha]V[Dap]CK[AEEA][Aun]-OH; thioether N-14)

Same assay, conditions: PE-labeled PD-L1-Ig 20 nM final, Jurkat-hPD-1 cells; read-out: Jurkat HPD1 PDL1 IC50

pIC50 | SMILES
6.36 | Cc1cccc(C[C@@H]2NC(=O)[C@H](CC(=O)O)NC(=O)[C@H](Cc3ccc(C(=O)O)cc3)NC(=O)[C@H](Cc3ccncc3)NC(=O)CSC[C@@H](C(=O)N[C@@H](CCN)C(=O)NCCOCCOCC(=O)NCCOCCOCC(=O)NCCCCCCCCCCC(=O)O)NC(=O)[C@H](CCC(=O)O)NC(=O)[C@H](C(C)C)NC(=O)[C@H](CC3CCCCC3)NC(=O)[C@H](CCN)NC(=O)[C@@H](CC(C)C)NC(=O)[C@H](C)N(C)C(=O)[C@H](CCC(=O)O)NC(=O)[C@H](Cc3ccc(-c4ccccc4)cc3)NC(=O)[C@H](Cc3ccc(C(N)=O)cc3)NC2=O)c1 [Example 2536] ({CH2CO}-[4Pal][Phe(4-COOH)]D[Phe(3-Me)][Phe(4-CONH2)][Bip]E[NMeA][dL][Dab][Cha]VEC[Dab][AEEA][AEEA][Aun]-OH; thioether N-14)
